# Test results taken from US20020137929A1, “1 - (3-heterocyclylphenyl) isothiourea, -isourea, -guanidine and -amidine herbicidal agents” (Intellectual Property Department, BASF Aktiengesellschaft, priority 1998, published 2002).
# Assays:
# [1] = test system: GLXMAW (Soybean, Williams); test: Preemergence herbicidal evaluation; type: in vivo, Glycine max, (L.) Merr. cv Williams; conditions: rated 4-5 weeks after treatment; for GLXMAW rating: preemergence, 0-9 scale
# How it was run: (§1)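 Test compound, dissolved in aqueous acetone, was sprayed over planted soil cups at an equivalent of about 0.0156 to 0.500 kg/ha; seeds had been mixed with potting soil. Greenhouse growth followed, with visual 0-9 scoring of injury at four to five weeks.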
# [2] = test system: CASOB (Sicklepod); test: Preemergence herbicidal evaluation; type: in vivo, Cassia obtusifolia; conditions: rated 4-5 weeks after treatment; for CASOB rating: preemergence, 0-9 scale
# How it was run: as §1
# [3] = test system: ABUTH (Velvetleaf); test: Preemergence herbicidal evaluation; type: in vivo, Abutilon theophrasti; conditions: rated 4-5 weeks after treatment; for ABUTH rating: preemergence, 0-9 scale
# How it was run: as §1
# [4] = test system: ECHCG (Barnyardgrass); test: Preemergence herbicidal evaluation; type: in vivo, Echinochloa crus-galli; conditions: rated 4-5 weeks after treatment; for ECHCG rating: preemergence, 0-9 scale
# How it was run: as §1
# [5] = test system: AMBEL (Ragweed, Common); test: Preemergence herbicidal evaluation; type: in vivo, Ambrosia artemisifolia; conditions: rated 4-5 weeks after treatment; for AMBEL rating: preemergence, 0-9 scale
# How it was run: as §1
# [6] = test system: SETVI (Foxtail, Green); test: Preemergence herbicidal evaluation; type: in vivo, Setaria viridis; conditions: rated 4-5 weeks after treatment; for SETVI rating: preemergence, 0-9 scale
# How it was run: as §1
# [7] = test system: ZEAMX (Corn, Field); test: Postemergence herbicidal evaluation; type: in vivo, Zea mays; conditions: postemergence
# How it was run: (§2)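 First, seedlings were raised for around two weeks. Next, test material in 50/50 acetone/water containing 0.5% TWEEN 20 was sprayed through a nozzle at 40 psi, equivalent to about 0.0156–0.500 kg/ha. Finally, after 4–5 weeks in the greenhouse, plants were rated 0–9.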
# [8] = test system: CYPSE (Flatsedge); test: Preemergence weed control under flooded paddy conditions; type: in vivo, Cyperus serotinus; conditions: rated 3-4 weeks after treatment
# How it was run: (§3)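 Herbicidal effect is scored visually on a 0-9 scale against an untreated control, three to four weeks after compounds are pipetted into the flood water (1.5 to 3 cm deep) over seeds planted in silt loam at 0.5 cm depth. Rates: about 0.0313 to 0.500 kg/ha.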
# [9] = test system: ECHORC (Watergrass (Calif.)); test: Postemergence weed control under flooded paddy conditions; type: in vivo, Echinochloa oryzoides; conditions: postemergence weeds
# How it was run: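 Flood-water application, about 0.0313–0.500 kg/ha a.i. in aqueous/acetone 50/50 v/v; water depth 1.5–3 cm throughout. Weeds 3–5 cm, rice 1.5–2.5 leaf. Greenhouse; 0–9 visual rating vs control at 3–4 wk.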
# [10] = test system: AMBEL (Ragweed, Common); test: Postemergence herbicidal evaluation; type: in vivo, Ambrosia artemisifolia; conditions: postemergence
# How it was run: as §2
# [11] = test system: IPOHE (Morningglory, Ivyleaf); test: Postemergence herbicidal evaluation; type: in vivo, Ipomoea hederacea; conditions: postemergence
# How it was run: as §2
# [12] = test system: GALAP (Galium); test: Preemergence herbicidal evaluation; type: in vivo, Galium aparine; conditions: rated 4-5 weeks after treatment; for GALAP rating: preemergence, 0-9 scale
# How it was run: as §1
# [13] = test system: SAGPY (Arrowhead (Pygmaea)); test: Preemergence weed control under flooded paddy conditions; type: in vivo, Sagittaria pygmaea; conditions: rated 3-4 weeks after treatment
# How it was run: as §3
# [14] = test system: GLXMAW (Soybean, Williams); test: Postemergence herbicidal evaluation; type: in vivo, Glycine max, (L.) Merr. cv Williams; conditions: postemergence
# How it was run: as §2
compound,measurement,setting,value
"COC(=O)CC1SC(=Nc2cc(-n3c(=O)cc(C(F)(F)F)n(C)c3=O)c(F)cc2Cl)N(C)C1=O (centres unmarked) [Compound 88, Methyl 2-{{2-chloro-5-[3,6-dihydro-3-methyl-2,6-dioxo-4-(trifluoromethyl)-1(2H)-pyrimidinyl]-4-fluorophenyl}imino}-3-methyl-4-oxo-5-thiazolidineacetate]",GLXMAW rating,[1]; 0.0156 kg/ha,0.0
same,GLXMAW rating,[1]; 0.0313 kg/ha,0.0
same,GLXMAW rating,[1]; 0.0625 kg/ha,0.0
same,GLXMAW rating,[1]; 0.1250 kg/ha,4.0
same,GLXMAW rating,[1]; 0.2500 kg/ha,9.0
same,CASOB rating,[2]; 0.0156 kg/ha,0.0
same,CASOB rating,[2]; 0.0313 kg/ha,0.0
same,CASOB rating,[2]; 0.0625 kg/ha,0.0
same,CASOB rating,[2]; 0.1250 kg/ha,3.0
same,CASOB rating,[2]; 0.2500 kg/ha,9.0
same,ABUTH rating,[3]; 0.0156 kg/ha,9.0
same,ABUTH rating,[3]; 0.0313 kg/ha,9.0
same,ABUTH rating,[3]; 0.0625 kg/ha,9.0
same,ABUTH rating,[3]; 0.1250 kg/ha,9.0
same,ABUTH rating,[3]; 0.2500 kg/ha,9.0
same,ECHCG rating,[4]; 0.0156 kg/ha,0.0
same,ECHCG rating,[4]; 0.0313 kg/ha,0.0
same,ECHCG rating,[4]; 0.0625 kg/ha,0.0
same,ECHCG rating,[4]; 0.1250 kg/ha,0.0
same,ECHCG rating,[4]; 0.2500 kg/ha,2.0
same,AMBEL rating,[5]; 0.0156 kg/ha,0.0
same,AMBEL rating,[5]; 0.0313 kg/ha,0.0
same,AMBEL rating,[5]; 0.0625 kg/ha,7.0
same,AMBEL rating,[5]; 0.1250 kg/ha,9.0
same,AMBEL rating,[5]; 0.2500 kg/ha,9.0
same,SETVI rating,[6]; 0.0156 kg/ha,0.0
same,SETVI rating,[6]; 0.0313 kg/ha,0.0
same,SETVI rating,[6]; 0.0625 kg/ha,3.0
same,SETVI rating,[6]; 0.1250 kg/ha,7.0
same,SETVI rating,[6]; 0.2500 kg/ha,9.0
same,ZEAMX herbicidal rating,[7]; rate 0.0158 kg/ha,7.5
same,ZEAMX herbicidal rating,[7]; rate 0.0315 kg/ha,8.5
same,ZEAMX herbicidal rating,[7]; rate 0.0630 kg/ha,9.0
same,CYPSE herbicidal effect rating,[8]; 0.0313 kg/ha,3.0
same,CYPSE herbicidal effect rating,[8]; 0.0625 kg/ha,5.0
same,CYPSE herbicidal effect rating,[8]; 0.1250 kg/ha,7.0
same,CYPSE herbicidal effect rating,[8]; 0.2500 kg/ha,7.0
same,Herbicidal rating ECHORC,"[9]; Rate 0.0313 kg/ha, rated 3 to 4 weeks after treatment",6.0
same,Herbicidal rating ECHORC,"[9]; Rate 0.0625 kg/ha, rated 3 to 4 weeks after treatment",6.0
same,Herbicidal rating ECHORC,"[9]; Rate 0.1250 kg/ha, rated 3 to 4 weeks after treatment",6.0
same,Herbicidal rating ECHORC,"[9]; Rate 0.2500 kg/ha, rated 3 to 4 weeks after treatment",7.0
same,AMBEL herbicidal rating,[10]; rate 0.0158 kg/ha,9.0
same,AMBEL herbicidal rating,[10]; rate 0.0315 kg/ha,9.0
same,AMBEL herbicidal rating,[10]; rate 0.0630 kg/ha,9.0
same,IPOHE herbicidal rating,[11]; rate 0.0158 kg/ha,9.0
same,IPOHE herbicidal rating,[11]; rate 0.0315 kg/ha,9.0
same,IPOHE herbicidal rating,[11]; rate 0.0630 kg/ha,9.0
same,GALAP rating,[12]; 0.0156 kg/ha,0.0
same,GALAP rating,[12]; 0.0313 kg/ha,0.0
same,GALAP rating,[12]; 0.0625 kg/ha,3.0
same,GALAP rating,[12]; 0.1250 kg/ha,3.0
same,GALAP rating,[12]; 0.2500 kg/ha,9.0
same,SAGPY herbicidal effect rating,[13]; 0.0313 kg/ha,6.0
same,SAGPY herbicidal effect rating,[13]; 0.0625 kg/ha,9.0
same,SAGPY herbicidal effect rating,[13]; 0.1250 kg/ha,9.0
same,SAGPY herbicidal effect rating,[13]; 0.2500 kg/ha,9.0
same,GLXMAW herbicidal rating,[14]; rate 0.0158 kg/ha,8.5
same,GLXMAW herbicidal rating,[14]; rate 0.0315 kg/ha,8.5
same,GLXMAW herbicidal rating,[14]; rate 0.0630 kg/ha,9.0
"CCOC(=O)CN1C(=O)C(F)SC1=Nc1cc(-n2c(=O)cc(C(F)(F)F)n(C)c2=O)c(F)cc1Cl (centres unmarked) [Compound 11, Ethyl 2-{{2-chloro-5-[3,6-dihydro-3-methyl-2,6-dioxo-4-(trifluoromethyl)-1(2H)-pyrimidinyl]-4-fluorophenyl}imino}-5-fluoro-4-oxo-3-thiazolidineacetate]",GLXMAW preemergence herbicidal rating,[1]; rate 0.0156 kg/ha,1.5
same,GLXMAW preemergence herbicidal rating,[1]; rate 0.0313 kg/ha,1.5
same,GLXMAW preemergence herbicidal rating,[1]; rate 0.0625 kg/ha,3.5
same,GLXMAW preemergence herbicidal rating,[1]; rate 0.1250 kg/ha,6.0
same,GLXMAW preemergence herbicidal rating,[1]; rate 0.2500 kg/ha,8.0
same,CASOB preemergence herbicidal rating,[2]; rate 0.0156 kg/ha,0.0
same,CASOB preemergence herbicidal rating,[2]; rate 0.0313 kg/ha,0.0
same,CASOB preemergence herbicidal rating,[2]; rate 0.0625 kg/ha,0.0
same,CASOB preemergence herbicidal rating,[2]; rate 0.1250 kg/ha,0.0
same,CASOB preemergence herbicidal rating,[2]; rate 0.2500 kg/ha,5.5
same,ABUTH preemergence herbicidal rating,[3]; rate 0.0156 kg/ha,7.5
same,ABUTH preemergence herbicidal rating,[3]; rate 0.0313 kg/ha,8.5
same,ABUTH preemergence herbicidal rating,[3]; rate 0.0625 kg/ha,8.5
same,ABUTH preemergence herbicidal rating,[3]; rate 0.1250 kg/ha,9.0
same,ABUTH preemergence herbicidal rating,[3]; rate 0.2500 kg/ha,9.0
same,ECHCG preemergence herbicidal rating,[4]; rate 0.0156 kg/ha,0.0
same,ECHCG preemergence herbicidal rating,[4]; rate 0.0313 kg/ha,0.0
same,ECHCG preemergence herbicidal rating,[4]; rate 0.0625 kg/ha,0.0
same,ECHCG preemergence herbicidal rating,[4]; rate 0.1250 kg/ha,3.5
same,ECHCG preemergence herbicidal rating,[4]; rate 0.2500 kg/ha,7.0
same,AMBEL preemergence herbicidal rating,[5]; rate 0.0156 kg/ha,0.0
same,AMBEL preemergence herbicidal rating,[5]; rate 0.0313 kg/ha,1.0
same,AMBEL preemergence herbicidal rating,[5]; rate 0.0625 kg/ha,5.5
same,AMBEL preemergence herbicidal rating,[5]; rate 0.1250 kg/ha,6.5
same,AMBEL preemergence herbicidal rating,[5]; rate 0.2500 kg/ha,9.0
same,SETVI preemergence herbicidal rating,[6]; rate 0.0156 kg/ha,0.0
same,SETVI preemergence herbicidal rating,[6]; rate 0.0313 kg/ha,1.0
same,SETVI preemergence herbicidal rating,[6]; rate 0.0625 kg/ha,7.0
same,SETVI preemergence herbicidal rating,[6]; rate 0.1250 kg/ha,7.5
same,SETVI preemergence herbicidal rating,[6]; rate 0.2500 kg/ha,9.0
same,ZEAMX herbicidal rating,[7]; rate 0.0156 kg/ha,6.5
same,ZEAMX herbicidal rating,[7]; rate 0.0313 kg/ha,6.5
same,ZEAMX herbicidal rating,[7]; rate 0.0625 kg/ha,7.5
same,ZEAMX herbicidal rating,[7]; rate 0.1250 kg/ha,7.5
same,Herbicidal rating CYPSE,[8]; 0.0313 kg/ha,0.0
same,Herbicidal rating CYPSE,[8]; 0.0625 kg/ha,0.0
same,Herbicidal rating CYPSE,[8]; 0.1250 kg/ha,0.0
same,Herbicidal rating CYPSE,[8]; 0.2500 kg/ha,0.0
same,Herbicidal rating ECHORC,"[9]; rate 0.0313 kg/ha, 3-4 weeks after treatment",1.0
same,Herbicidal rating ECHORC,"[9]; rate 0.0625 kg/ha, 3-4 weeks after treatment",2.0
same,Herbicidal rating ECHORC,"[9]; rate 0.1250 kg/ha, 3-4 weeks after treatment",2.0
same,Herbicidal rating ECHORC,"[9]; rate 0.2500 kg/ha, 3-4 weeks after treatment",3.0
same,AMBEL herbicidal rating,[10]; rate 0.0156 kg/ha,1.0
same,AMBEL herbicidal rating,[10]; rate 0.0313 kg/ha,9.0
same,AMBEL herbicidal rating,[10]; rate 0.0625 kg/ha,9.0
same,AMBEL herbicidal rating,[10]; rate 0.1250 kg/ha,9.0
same,IPOHE herbicidal rating,[11]; rate 0.0156 kg/ha,9.0
same,IPOHE herbicidal rating,[11]; rate 0.0313 kg/ha,9.0
same,IPOHE herbicidal rating,[11]; rate 0.0625 kg/ha,9.0
same,IPOHE herbicidal rating,[11]; rate 0.1250 kg/ha,9.0
same,GALAP preemergence herbicidal rating,[12]; rate 0.0156 kg/ha,0.0
same,GALAP preemergence herbicidal rating,[12]; rate 0.0313 kg/ha,0.0
same,GALAP preemergence herbicidal rating,[12]; rate 0.0625 kg/ha,0.0
same,GALAP preemergence herbicidal rating,[12]; rate 0.1250 kg/ha,0.0
same,GALAP preemergence herbicidal rating,[12]; rate 0.2500 kg/ha,9.0
same,Herbicidal rating SAGPY,[13]; 0.0313 kg/ha,0.0
same,Herbicidal rating SAGPY,[13]; 0.0625 kg/ha,0.0
same,Herbicidal rating SAGPY,[13]; 0.1250 kg/ha,0.0
same,Herbicidal rating SAGPY,[13]; 0.2500 kg/ha,0.0
same,GLXMAW herbicidal rating,[14]; rate 0.0156 kg/ha,5.0
same,GLXMAW herbicidal rating,[14]; rate 0.0313 kg/ha,7.5
same,GLXMAW herbicidal rating,[14]; rate 0.0625 kg/ha,9.0
same,GLXMAW herbicidal rating,[14]; rate 0.1250 kg/ha,9.0
